Measurements published in the supplement of paper PMC4862054.

Assays:
Details in all cases: incubation time: 72 h
[1] = tested on: CAL-120; test: normalised viability (% of control), CellTiter-Blue; higher = more viable cells (about 100 = DMSO control)
How it was run: (§1)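 The reported figure is normalised viability at a single listed concentration of the series. Breast cancer cell lines (20 µl suspension) went onto 384-well plates holding compound in 5 µl medium for 72 h. CellTiter-Blue (2.5 µl, 2 h, 37 °C) was read by fluorescence at 560/590 nm, and each plate was scaled to vehicle at 100 and a positive kill control at 0.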

[2] = tested on: MDA-MB-468; test: as above
How it was run: as §1

[3] = tested on: CAL-148; test: as above
How it was run: as §1

[4] = tested on: HCC1599; test: as above
How it was run: as §1

[5] = tested on: SK-BR-3; test: as above
How it was run: as §1

[6] = tested on: HCC1143; test: as above
How it was run: as §1

[7] = tested on: MDA-MB-436; test: as above
How it was run: as §1

[8] = tested on: MFM-223; test: as above
How it was run: as §1

[9] = tested on: BT-474; test: as above
How it was run: as §1

[10] = tested on: Hs578T; test: as above
How it was run: as §1

[11] = tested on: CAL-85-1; test: as above
How it was run: as §1

[12] = tested on: BT-549; test: as above
How it was run: as §1

[13] = tested on: HDQ-P1; test: as above
How it was run: as §1

[14] = tested on: MDA-MB-453; test: as above
How it was run: as §1

[15] = tested on: CAL-51; test: as above
How it was run: as §1

[16] = tested on: MDA-MB-231; test: as above
How it was run: as §1

[17] = tested on: CAL-148; test: drug sensitivity score (DSS), CellTiter-Glo (DSS (AUC-based score)); higher = stronger drug effect (viability inhibition or cytotoxicity); extreme values may be limits of the assay
How it was run: (§2)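 Plates with 384 wells held compound at 5 concentrations in 10-fold steps over a 10,000-fold range specific to each compound. Breast cancer cell lines were added in 20 µl suspension and incubated 72 h, then read for CellTox Green and CellTiter-Glo signals, with each plate normalised to 0.1 % DMSO and a positive kill control. The drug sensitivity score is based on the area under the fitted dose-response curve.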

[18] = tested on: MCF-10A; test: as above
How it was run: as §2

[19] = tested on: HCC1599; test: as above
How it was run: as §2

[20] = tested on: HCC1143; test: as above
How it was run: as §2

[21] = tested on: MDA-MB-436; test: as above
How it was run: as §2

[22] = tested on: CAL-85-1; test: as above
How it was run: as §2

[23] = tested on: BT-549; test: as above
How it was run: as §2

[24] = tested on: CAL-51; test: as above
How it was run: as §2

Oc1ccc2c(c1)CC[C@H](c1ccccc1)[C@@H]2c1ccc(OCCN2CCCC2)cc1 [Lasofoxifene]
normalised viability [%]
Details	0.3 nM	1 nM	3 nM	10 nM	100 nM	1000 nM
[1]	–	77.6	–	–	87.8	95.8
[2]	–	95	–	–	95.8	94.4
[3]	95.9	–	104	102	–	–
[4]	–	96	–	–	81.4	103
[5]	–	108	–	–	98.4	101
[6]	–	86	–	–	104	95.6
[7]	–	95.5	–	–	84.3	101
[8]	–	83.5	–	–	84	89.7
[9]	–	122	–	–	114	110
[10]	–	108	–	–	103	118
[11]	83.5	–	82.5	93	–	–
[12]	–	88.1	–	–	83.2	90.3
[13]	97.7	–	114	101	–	–
[14]	115	–	98.3	98.9	–	–
[15]	100	–	97.9	92.6	–	–
[16]	–	93.1	–	–	95.2	95.3

Details	drug sensitivity score
[17]	0
[18]	0
[19]	0
[20]	0
[21]	0
[22]	0
[23]	0
[24]	0

Cc1ccc(NC(=O)c2ccc(CN3CCN(C)CC3)cc2)cc1Nc1nc(-c2cccnc2)cs1 [Masitinib]
normalised viability [%]
Details	3 nM	10 nM	30 nM	100 nM	1000 nM	10000 nM
[1]	–	82.4	–	–	81.8	79.3
[2]	–	93.3	–	–	105	53.4
[3]	80.9	–	82.8	90.6	–	–
[4]	–	86.2	–	–	97.6	95.8
[5]	–	99.6	–	–	102	25.2
[6]	–	77.4	–	–	88.7	85.5
[7]	–	97.5	–	–	111	72.4
[8]	–	89.2	–	–	93.7	92.5
[9]	–	105	–	–	101	50.1
[10]	–	113	–	–	113	81.4
[11]	94.8	–	75.5	90.8	–	–
[12]	–	94.2	–	–	100	51.2
[13]	94	–	92.9	99.5	–	–
[14]	112	–	123	105	–	–
[15]	106	–	100	97.5	–	–
[16]	–	96.7	–	–	91.1	50.4

Details	drug sensitivity score
[17]	0
[18]	0
[19]	1.31
[20]	0
[21]	0
[22]	0
[23]	3.23
[24]	4.22

O=C(Nc1cccnc1)N1CCC(Cc2cccc(Oc3ccc(C(F)(F)F)cn3)c2)CC1 [PF-3845]
normalised viability [%]
Details	3 nM	10 nM	30 nM	100 nM	1000 nM	10000 nM
[1]	–	99.1	–	–	105	120
[2]	–	106	–	–	117	62.8
[3]	91	–	85.3	97.9	–	–
[4]	–	95.1	–	–	114	76.6
[5]	–	111	–	–	106	116
[6]	–	84.3	–	–	88.5	89.5
[7]	–	98.1	–	–	116	101
[8]	–	91.8	–	–	95.5	74.1
[9]	–	128	–	–	111	40.5
[10]	–	116	–	–	94.3	79.1
[11]	89.6	–	89.5	87.1	–	–
[12]	–	93.3	–	–	86.9	48.6
[13]	129	–	115	113	–	–
[14]	112	–	101	101	–	–
[15]	109	–	98.1	103	–	–
[16]	–	106	–	–	115	127

Details	drug sensitivity score
[17]	0
[18]	0
[19]	1.04
[20]	0
[21]	0
[22]	0.0221
[23]	1.34
[24]	2.47
